Earlier results as cited in US20200253976A1, “Endothelial Facilitation in Neurodegerative Diseases by Cerebral Blood Flow Enhancement” (UNIVERSITY OF MASSACHUSETTS, priority 2017, published 2020).
Where two headings read alike, the source gives them in different places. Each block holds one molecule with its values, some of them ahead of it.

What was measured:
[1] = phase 2 study
eNOS = molecular target: T1, eNOS (Homo sapiens, UniProt P29474); conditions: endothelial dysfunction where l-arginine is rate-limiting
T1 sequence (P29474 1-1203): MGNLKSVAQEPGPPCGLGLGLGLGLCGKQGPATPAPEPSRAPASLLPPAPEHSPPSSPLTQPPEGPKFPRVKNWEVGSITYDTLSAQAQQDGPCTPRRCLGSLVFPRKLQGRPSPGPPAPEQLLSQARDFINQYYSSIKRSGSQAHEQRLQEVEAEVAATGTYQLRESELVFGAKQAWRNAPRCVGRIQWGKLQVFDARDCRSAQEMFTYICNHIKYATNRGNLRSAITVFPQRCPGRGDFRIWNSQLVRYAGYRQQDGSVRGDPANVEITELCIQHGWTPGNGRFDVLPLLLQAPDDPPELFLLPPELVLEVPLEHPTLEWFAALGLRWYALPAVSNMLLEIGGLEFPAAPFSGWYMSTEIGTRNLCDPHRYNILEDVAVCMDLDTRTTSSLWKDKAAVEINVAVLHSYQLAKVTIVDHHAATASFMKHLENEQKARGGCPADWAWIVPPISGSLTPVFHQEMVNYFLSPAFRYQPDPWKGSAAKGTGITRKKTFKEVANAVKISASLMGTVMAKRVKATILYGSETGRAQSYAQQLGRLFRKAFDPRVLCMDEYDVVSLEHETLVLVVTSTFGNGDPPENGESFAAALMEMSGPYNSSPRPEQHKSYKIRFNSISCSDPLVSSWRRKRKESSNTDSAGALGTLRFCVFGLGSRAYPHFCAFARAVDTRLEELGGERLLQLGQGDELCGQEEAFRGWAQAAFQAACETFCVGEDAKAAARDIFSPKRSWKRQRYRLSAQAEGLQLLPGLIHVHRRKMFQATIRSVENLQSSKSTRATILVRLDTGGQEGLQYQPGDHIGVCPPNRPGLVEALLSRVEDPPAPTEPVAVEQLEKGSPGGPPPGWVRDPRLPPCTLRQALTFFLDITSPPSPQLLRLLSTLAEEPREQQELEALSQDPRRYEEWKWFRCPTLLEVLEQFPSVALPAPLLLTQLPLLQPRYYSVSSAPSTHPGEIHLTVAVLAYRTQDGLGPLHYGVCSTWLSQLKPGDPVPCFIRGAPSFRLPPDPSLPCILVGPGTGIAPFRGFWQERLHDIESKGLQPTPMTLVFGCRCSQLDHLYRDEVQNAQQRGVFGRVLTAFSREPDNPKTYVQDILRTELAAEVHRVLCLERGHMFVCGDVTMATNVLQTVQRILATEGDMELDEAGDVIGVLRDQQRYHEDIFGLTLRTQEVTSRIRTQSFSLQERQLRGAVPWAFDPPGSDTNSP

NOS = conditions: mouse ovarian follicles; L-arginine omitted
[2] = in vivo
[3] = test system: treated subjects with Alzheimer's disease; conditions: human trial in AD, stopped prematurely

Molecule: NC(=O)[C@@H](CCC(F)(F)F)N(Cc1ccc(-c2ncon2)cc1F)S(=O)(=O)c1ccc(Cl)cc1 [Avagacestat]
- cognitive benefit [1]: no cognitive benefit

Molecule: NC(=O)NCCC[C@H](N)C(=O)O [L-citrulline]
- eNOS activity on supplementation (eNOS): fully restored
- compensation for L-arginine withdrawal (NOS phenotype) (NOS): partial compensation

Molecule: NC(=NCCC[C@H](N)C(=O)O)NO [NG-hydroxy-L-arginine]
- compensation for L-arginine withdrawal (NOS phenotype) (NOS): partial compensation

- headache, frequency (in vivo): 15%
- nasal discharge, frequency (upper respiratory symptom): 11%
- pain in throat, frequency (upper respiratory symptom): 10%
- upper respiratory infection, frequency (upper respiratory symptom): 12-17%
Molecule: C[C@H](O)[C@H](O)[C@H]1CNc2nc(N)[nH]c(=O)c2N1 [Sapropterin, tetrahydrobiopterin]
- abdominal pain, frequency (gastrointestinal side effect): 5%
- diarrhea, frequency (gastrointestinal side effect): 8%
- nausea, frequency (gastrointestinal side effect): 4%
- vomiting, frequency (gastrointestinal side effect): 8%

Molecule: C[C@@H](C(=O)O)c1ccc(-c2ccccc2)c(F)c1 [Tarenflurbil]
- benefit in AD [2]: failed to produce any benefit

Molecule: CC(C)[C@H](O)C(=O)N[C@@H](C)C(=O)N[C@@H]1C(=O)N(C)CCc2ccccc21 [semagacestat]
- cognitive performance of treated subjects versus control / placebo [3]: significantly worse cognitive performance than control subjects
- cognitive performance of treated subjects versus control / placebo ([3]; listed as Semagacestat): exacerbated cognitive decline compared with placebo

Molecule: AN-1792: Abeta active immunization (Elan Pharmaceuticals, Inc.)
- Aβ in the brain of treated subjects (patients with AD; active immunization): decreased Aβ markedly
- progression of dementia (patients with AD; active immunization, even when the amyloid plaques had been removed): failed to decrease the progression of dementia
- brain atrophy on quantitative imaging versus control subjects (patients with AD; treated subjects with immunological response and decreased amyloid burden): greater brain atrophy
- autoimmune encephalopathy (patients with AD; trial stopped): several subjects developed an autoimmune encephalopathy
